Data on 1 compound can be found in ChEMBL document CHEMBL1156599, “Nordihydroguaiaretic acid autoxidation produces a schisandrin-like dibenzocyclooctadiene lignan” (J Nat Prod, 2008).

A short description of the data set: Stability assessed as half life at pH 7.4. The data set is classed as physicochemical. The following applies: buffer.

One may read the half-life as how long it takes for the measured level to halve. Take `CC(Cc1ccc(O)c(O)c1)C(C)Cc1ccc(O)c(O)c1` (stereo unspecified) [NORDIHYDROGUAIARETIC ACID]: the half-life was 3 h.
